Experimental data as given in patent US20260176320A1, “MODULATORS OF G-PROTEIN COUPLED RECEPTORS” (priority 2018, published 2026).
pEC50: −log10 of the molar value. Where two headings read alike, the source gives them in different places. Numbered stars: 1 amine (or outer) side, 2 acyl side, 3 side chain; on linkers, the order of the positions; unused ones are H or OH. Square brackets hold non-standard residues; d marks the D form. Side chains are listed from the residue outwards. Peptide text beside a SMILES is read from it. * marks the point of attachment. γGlu = O=C(O)[C@H](CCC(=O)[*:2])N[*:1]; Palmitoyl = CCCCCCCCCCCCCCCC(=O)*; X6 = O=C(CSCC(=O)*)NCCN1CCCCC1=O; Aib = CC(C)(N)C(=O)O

Legend:
Assay type in all cases: cell-based
GLP-1R [1] = molecular target: T1, GLP-1R (Homo sapiens, UniProt P43220); assay: PathHunter β-arrestin assay
T1 sequence (P43220 24-463): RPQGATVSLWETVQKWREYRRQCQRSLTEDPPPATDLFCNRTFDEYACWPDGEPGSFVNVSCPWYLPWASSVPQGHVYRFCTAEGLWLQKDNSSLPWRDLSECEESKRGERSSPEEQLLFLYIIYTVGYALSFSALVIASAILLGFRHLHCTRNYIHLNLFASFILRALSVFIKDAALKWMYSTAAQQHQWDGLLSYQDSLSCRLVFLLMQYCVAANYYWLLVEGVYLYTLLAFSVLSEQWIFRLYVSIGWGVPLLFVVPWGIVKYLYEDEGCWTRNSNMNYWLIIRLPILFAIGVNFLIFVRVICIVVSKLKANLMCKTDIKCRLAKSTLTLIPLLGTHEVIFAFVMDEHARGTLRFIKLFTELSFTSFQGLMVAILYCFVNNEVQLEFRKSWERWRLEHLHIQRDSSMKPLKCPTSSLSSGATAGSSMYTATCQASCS
Method in brief: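 Following a 90 min agonist exposure at 37 °C in 0.2% BSA medium, β-arrestin coupling was detected by chemiluminescence after 3 h at room temperature.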

GLP-1R [2] = molecular target: T1, GLP-1R; assay: HitHunter cAMP assay (GLP-1R)
Method in brief: (§1)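 Duplicate 22-point, 2-fold agonist titrations applied to receptor-expressing suspension cells in IBMX-containing HBSS; 30 min RT stimulation. Read: luminescent cAMP immunocompetition after O/N dark incubation.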

GIP-R = molecular target: T2, GIP-R (Homo sapiens, UniProt P48546); assay: HitHunter cAMP assay (GIP-R); conditions: for Emax: read-out: (Emax) GIP-R
T2 sequence (P48546 22-466): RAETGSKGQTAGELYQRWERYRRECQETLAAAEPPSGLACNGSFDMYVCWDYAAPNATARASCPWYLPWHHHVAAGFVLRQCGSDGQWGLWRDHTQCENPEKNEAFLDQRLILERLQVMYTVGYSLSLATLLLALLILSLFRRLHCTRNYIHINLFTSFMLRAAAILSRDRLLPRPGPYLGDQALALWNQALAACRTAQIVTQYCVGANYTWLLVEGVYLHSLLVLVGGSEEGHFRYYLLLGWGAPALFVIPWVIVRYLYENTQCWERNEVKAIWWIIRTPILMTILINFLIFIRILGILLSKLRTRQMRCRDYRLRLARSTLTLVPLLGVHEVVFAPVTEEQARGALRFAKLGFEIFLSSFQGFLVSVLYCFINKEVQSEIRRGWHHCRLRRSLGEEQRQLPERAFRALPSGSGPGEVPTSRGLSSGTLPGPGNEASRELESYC
Method in brief: as §1

[3] = PathHunter β-arrestin assay, read-out: β-arrestin activity EC50
[4] = Table 3; cAMP; read-out: (Emax) GLP-1R
[5] = Table 3; cAMP; read-out: EC50 GLP-1R/nM
[6] = Table 3A; cAMP; read-out: (Emax) GLP-1R
[7] = Table 3A; cAMP; read-out: EC50 GLP-1R/nM
[8] = Table 3, cAMP, read-out: EC50 GIP-R/nM
[9] = Table 3A, cAMP, read-out: EC50 GIP-R/nM

Structure (SMILES)	pEC50 (GLP-1R [1]; [3])	Emax (GLP-1R [2]; [4]) [%]	EC50 (GLP-1R [2]; [5]) [nM]	Emax (GLP-1R [2]; [6]) [%]	EC50 (GLP-1R [2]; [7]) [nM]	Emax (GIP-R; Table 3, cAMP) [%]	EC50 (GIP-R; [8]) [nM]	Emax (GIP-R; Table 3A, cAMP) [%]	EC50 (GIP-R; [9]) [nM]	pEC50 (GLP-1R [1])	pEC50 (GLP-1R [2])	(Emax) GLP-1R (GLP-1R [2]; Table 3A; cAMP)	Emax (GLP-1R [2]; read-out: (Emax) GLP-1R) [%]	EC50 (GLP-1R [2]; read-out: EC50 GLP-1R/nM; Table 3A; cAMP) [nM]	EC50 (GIP-R; EC50 GIP-R/nM, Table 3, cAMP) [nM]	EC50 (GIP-R; EC50 GIP-R/nM, Table 3A, cAMP) [nM]	Emax (GIP-R) [%]
CC[C@H](C)[C@H](NC(=O)[C@H](CO)NC(=O)[C@H](Cc1ccc(O)cc1)NC(=O)[C@H](CC(=O)O)NC(=O)[C@H](CO)NC(=O)[C@@H](NC(=O)[C@H](Cc1ccccc1)NC(=O)[C@@H](NC(=O)CNC(=O)[C@H](CCC(=O)O)NC(=O)CCCNC(=O)CCN1C(=O)CSC1=O)[C@@H](C)O)[C@@H](C)O)C(=O)N[C@@H](Cc1ccc(O)cc1)C(=O)N[C@@H](CC(C)C)C(=O)N[C@@H](CC(=O)O)C(=O)N[C@@H](CCCCN)C(=O)N[C@@H](CCC(N)=O)C(=O)N[C@@H](C)C(=O)N[C@@H](C)C(=O)NC(C)(C)C(=O)N[C@@H](CCC(=O)O)C(=O)N[C@@H](Cc1ccccc1)C(=O)N[C@H](C(=O)N[C@@H](CC(N)=O)C(=O)N[C@@H](Cc1c[nH]c2ccccc12)C(=O)N[C@@H](CC(C)C)C(=O)N[C@@H](CC(C)C)C(=O)N[C@@H](C)C(=O)NCC(=O)NCC(=O)N1CCC[C@H]1C(=O)N[C@@H](CO)C(=O)N[C@@H](CO)C(=O)NCC(=O)N[C@@H](C)C(=O)N1CCC[C@H]1C(=O)N1CCC[C@H]1C(=O)N1CCC[C@H]1C(=O)N[C@@H](CO)C(=O)N[C@@H](CCCCN)C(N)=O)C(C)C [Compound 165]	< 6.00	101 to 106	0.1 to 1	101 to 106	0.1 to 1	91 to 98	1 to 10	91 to 98	1 to 10								
CC[C@H](C)[C@H](NC(=O)[C@H](CO)NC(=O)[C@H](Cc1ccc(O)cc1)NC(=O)[C@H](CC(=O)O)NC(=O)[C@H](CO)NC(=O)[C@@H](NC(=O)[C@H](Cc1ccccc1)NC(=O)[C@@H](NC(=O)CNC(=O)[C@H](CCC(=O)O)NC(=O)CSCC(=O)NCCn1ccccc1=O)[C@@H](C)O)[C@@H](C)O)C(=O)N[C@@H](Cc1ccc(O)cc1)C(=O)N[C@@H](CC(C)C)C(=O)N[C@@H](CC(=O)O)C(=O)N[C@@H](CCCCN)C(=O)N[C@@H](CCC(N)=O)C(=O)N[C@@H](C)C(=O)N[C@@H](C)C(=O)NC(C)(C)C(=O)N[C@@H](CCC(=O)O)C(=O)N[C@@H](Cc1ccccc1)C(=O)N[C@H](C(=O)N[C@@H](CC(N)=O)C(=O)N[C@@H](Cc1c[nH]c2ccccc12)C(=O)N[C@@H](CC(C)C)C(=O)N[C@@H](CC(C)C)C(=O)N[C@@H](C)C(=O)NCC(=O)NCC(=O)N1CCC[C@H]1C(=O)N[C@@H](CO)C(=O)N[C@@H](CO)C(=O)NCC(=O)N[C@@H](C)C(=O)N1CCC[C@H]1C(=O)N1CCC[C@H]1C(=O)N1CCC[C@H]1C(=O)N[C@@H](CO)C(=O)N[C@@H](CCCCN)C(N)=O)C(C)C [Compound 139]	< 6.00	102	0.1 to 1	102	0.1 to 1	79	1 to 10	79	1 to 10								
CC[C@H](C)[C@H](NC(=O)[C@H](CO)NC(=O)[C@H](Cc1ccc(O)cc1)NC(=O)[C@H](CC(=O)O)NC(=O)[C@H](CO)NC(=O)[C@@H](NC(=O)[C@H](Cc1ccccc1)NC(=O)[C@@H](NC(=O)CNC(=O)[C@H](CCC(=O)O)NC(=O)C1(C(=O)NCCN2C(=O)CSC2=O)CCC1)[C@@H](C)O)[C@@H](C)O)C(=O)N[C@@H](Cc1ccc(O)cc1)C(=O)N[C@@H](CC(C)C)C(=O)N[C@@H](CC(=O)O)C(=O)N[C@@H](CCCCN)C(=O)N[C@@H](CCC(N)=O)C(=O)N[C@@H](C)C(=O)N[C@@H](C)C(=O)NC(C)(C)C(=O)N[C@@H](CCC(=O)O)C(=O)N[C@@H](Cc1ccccc1)C(=O)N[C@H](C(=O)N[C@@H](CC(N)=O)C(=O)N[C@@H](Cc1c[nH]c2ccccc12)C(=O)N[C@@H](CC(C)C)C(=O)N[C@@H](CC(C)C)C(=O)N[C@@H](C)C(=O)NCC(=O)NCC(=O)N1CCC[C@H]1C(=O)N[C@@H](CO)C(=O)N[C@@H](CO)C(=O)NCC(=O)N[C@@H](C)C(=O)N1CCC[C@H]1C(=O)N1CCC[C@H]1C(=O)N1CCC[C@H]1C(=O)N[C@@H](CO)C(=O)N[C@@H](CCCCN)C(N)=O)C(C)C [Compound 134]										6.00 to 8.00	> 10.00	103-108%	103 to 108	< 0.1	10 to 100	10 to 100	30
CCCCCCCCCCCCCCCC(=O)N[C@@H](CCC(=O)NCCCC[C@H](NC(=O)[C@H](CO)NC(=O)[C@@H]1CCCN1C(=O)[C@@H]1CCCN1C(=O)[C@@H]1CCCN1C(=O)[C@H](C)NC(=O)CNC(=O)[C@H](CO)NC(=O)[C@H](CO)NC(=O)[C@@H]1CCCN1C(=O)CNC(=O)CNC(=O)[C@H](C)NC(=O)[C@H](CC(C)C)NC(=O)[C@H](CC(C)C)NC(=O)[C@H](Cc1c[nH]c2ccccc12)NC(=O)[C@H](CC(N)=O)NC(=O)[C@@H](NC(=O)[C@H](Cc1ccccc1)NC(=O)[C@H](CCC(=O)O)NC(=O)C(C)(C)NC(=O)[C@H](C)NC(=O)[C@H](C)NC(=O)[C@H](CCC(N)=O)NC(=O)[C@H](CCCCN)NC(=O)[C@H](CC(=O)O)NC(=O)[C@H](CC(C)C)NC(=O)[C@H](Cc1ccc(O)cc1)NC(=O)[C@@H](NC(=O)[C@H](CO)NC(=O)[C@H](Cc1ccc(O)cc1)NC(=O)[C@H](CC(=O)O)NC(=O)[C@H](CO)NC(=O)[C@@H](NC(=O)[C@H](Cc1ccccc1)NC(=O)[C@@H](NC(=O)CNC(=O)[C@H](CCC(=O)O)NC(=O)CSCC(=O)NCC(=O)N1CCCCC1)[C@@H](C)O)[C@@H](C)O)[C@@H](C)CC)C(C)C)C(N)=O)C(=O)O [Compound 226]	< 6.00			89	1 to 10			17	100 to 1000								
CCCCCCCCCCCCCCCC(=O)N[C@@H](CCC(=O)NCCCC[C@H](NC(=O)[C@H](CO)NC(=O)[C@@H]1CCCN1C(=O)[C@@H]1CCCN1C(=O)[C@@H]1CCCN1C(=O)[C@H](C)NC(=O)CNC(=O)[C@H](CO)NC(=O)[C@H](CO)NC(=O)[C@@H]1CCCN1C(=O)CNC(=O)CNC(=O)[C@H](C)NC(=O)[C@H](CC(C)C)NC(=O)[C@H](CC(C)C)NC(=O)[C@H](Cc1c[nH]c2ccccc12)NC(=O)[C@H](CC(N)=O)NC(=O)[C@@H](NC(=O)[C@H](Cc1ccccc1)NC(=O)[C@H](CCC(=O)O)NC(=O)C(C)(C)NC(=O)[C@H](C)NC(=O)[C@H](C)NC(=O)[C@H](CCC(N)=O)NC(=O)[C@H](CCCCN)NC(=O)[C@H](CC(=O)O)NC(=O)[C@H](CC(C)C)NC(=O)[C@H](Cc1ccc(O)cc1)NC(=O)[C@@H](NC(=O)[C@H](CO)NC(=O)[C@H](Cc1ccc(O)cc1)NC(=O)[C@H](CC(=O)O)NC(=O)[C@H](CO)NC(=O)[C@@H](NC(=O)[C@H](Cc1ccccc1)NC(=O)[C@@H](NC(=O)CNC(=O)[C@H](CC(=O)O)NC(=O)CSCC(=O)NCCN1CCCCC1=O)[C@@H](C)O)[C@@H](C)O)[C@@H](C)CC)C(C)C)C(N)=O)C(=O)O [Compound 217] (X6-DGTFTSDYSIYLDKQAA[Aib]EFVNWLLAGGPSSGAPPPSK([γGlu-Palmitoyl])-NH2)	< 6.00			97	< 0.1			58	1 to 10								
CC[C@H](C)[C@H](NC(=O)[C@H](CO)NC(=O)[C@H](Cc1ccc(O)cc1)NC(=O)[C@H](CC(=O)O)NC(=O)[C@H](CO)NC(=O)[C@@H](NC(=O)[C@H](Cc1ccccc1)NC(=O)[C@@H](NC(=O)CNC(=O)[C@H](CCC(=O)O)NC(=O)CCNC(=O)CCCN1C(=O)c2ccccc2C1=O)[C@@H](C)O)[C@@H](C)O)C(=O)N[C@@H](Cc1ccc(O)cc1)C(=O)N[C@@H](CC(C)C)C(=O)N[C@@H](CC(=O)O)C(=O)N[C@@H](CCCCN)C(=O)N[C@@H](CCC(N)=O)C(=O)N[C@@H](C)C(=O)N[C@@H](C)C(=O)NC(C)(C)C(=O)N[C@@H](CCC(=O)O)C(=O)N[C@@H](Cc1ccccc1)C(=O)N[C@H](C(=O)N[C@@H](CC(N)=O)C(=O)N[C@@H](Cc1c[nH]c2ccccc12)C(=O)N[C@@H](CC(C)C)C(=O)N[C@@H](CC(C)C)C(=O)N[C@@H](C)C(=O)NCC(=O)NCC(=O)N1CCC[C@H]1C(=O)N[C@@H](CO)C(=O)N[C@@H](CO)C(=O)NCC(=O)N[C@@H](C)C(=O)N1CCC[C@H]1C(=O)N1CCC[C@H]1C(=O)N1CCC[C@H]1C(=O)N[C@@H](CO)C(=O)N[C@@H](CCCCN)C(N)=O)C(C)C [Compound 146]	< 6.00	86 to 92	1 to 10	86 to 92	1 to 10	83 to 97	10 to 100	83 to 97	1 to 10								
